Measured values published in patent US11753407B2, “Compounds for treating spinal muscular atrophy” (PTC Therapeutics, Inc., priority 2012, dated 2023).

Columns and labels:
[1] = tested on: neonatal SMA Δ7 homozygous knockout mice; assay: Survival of neonatal Δ7 SMA mice; assay type: in vivo
Protocol: The change in the number of surviving mice over time is used to determine whether treatment with a test compound improves survival.
Protocol. SMA Δ7 homozygous knockout mice are dosed intraperitoneally (IP) with test compound or vehicle (100% DMSO) QD from PND 3 until the dose regimen is switched to an oral dose BID in 0.5% hydroxypropylmethyl cellulose (HPMC) with 0.1% Tween-80 at a dose 3.16-fold higher than the dose used for IP and later switched to an oral dose QD in 0.5% hydroxypropylmethyl cellulose (HPMC) with 0.1% Tween-80 at a dose 6.32-fold higher than the dose used for IP. The number of surviving mice in each group is recorded every day and plotted as a percent of total number of mice. Tissues of SMA Δ7 and age-matched heterozygous mice are collected for the measurement of Smn protein levels and processed as detailed in Example 10. The total protein normalized Smn protein levels measured in the tissues are plotted as a percent of those in the age-matched heterozygous mice tissues, with the Smn level in heterozygous mice set to 100 percent. The level of Smn protein in the test compound treated mice tissue relative to that in heterozygous mice tissue is indicated as a percent value above each bar in the graph.

[2] = tested on: Smn protein in human motor neurons derived from SMA iPS cells; assay: Smn protein assay in human motor neurons; assay type: cell-based; details: 72 hours, increasing concentrations (FIG. 10)
Protocol: Smn immunofluorescent confocal microscopy is used to quantify the level of Smn protein in human motor neurons treated with test compounds.
Protocol. Human motor neurons derived from SMA iPS cells (Ebert et al., Nature, 2009, […]; and, Rubin et al., BMC Biology, 2011, 9:42) are treated with test compound at various concentrations for 72 hours. The level of Smn protein in the cell nucleus is quantified using Smn immunostaining and confocal fluorescence microscopy essentially as described in Makhortova et al., Nature Chemical Biology, 2011, 7:544. The level of Smn protein in compound-treated samples is normalized to that in vehicle-treated samples and plotted as a function of the compound concentration.

[3] = tested on: SMN2 mRNA in GM03813 SMA patient cells; assay: Endogenous SMN2 mRNA RT-qPCR splicing assay in cultured cells; assay type: cell-based, human; details: Type 1 SMA patient fibroblasts, increasing concentrations, 24 hr, versus vehicle (FIG. 4)
Protocol: The reverse transcription-quantitative PCR-based (RT-qPCR) assay is used to quantify the levels of the full length and Δ7 SMN2 mRNA in primary cells and cell lines containing the SMN2 gene treated with a test compound.
Protocol. GM03813 SMA patient cells (5,000 cells/well) are seeded in 200 μL of cell culture medium (DMEM plus 10% FBS) in 96-well flat-bottom plates and the plate is immediately swirled to ensure proper dispersal of cells, forming an even monolayer of cells. Cells are allowed to attach for at least 4-6 hrs. Test compounds are serially diluted 3.16-fold in 100% DMSO to generate a 7-point concentration curve. A solution of test compound (1 μL, 200× in DMSO) is added to each test well and 1 μL DMSO is added to each control well. The plate is incubated for 24 hrs in a cell culture incubator (37° C., 5% CO2, 100% relative humidity). The cells are then lysed in Cells-To-Ct lysis buffer and the lysate is stored at −80° C.
SMN2-specific spliced products and GAPDH mRNA are identified using the following primers and probes in Table 5. Primer SMN FL Forward B (SEQ ID NO. 7) hybridizes to a nucleotide sequence in exon 7 (nucleotide 32 to nucleotide 54) and exon 8 (nucleotide 1 to nucleotide 4), primer SMN Δ7 Forward B (SEQ ID NO. 8) hybridizes to a nucleotide sequence in exon 6 (nucleotide 87 to nucleotide 111) and exon 8 (nucleotide 1 to nucleotide 3), primer SMN Reverse B (SEQ ID NO. 9) hybridizes to a nucleotide sequence in exon 8 (nucleotide 39 to nucleotide 62), probe SMN Probe B (SEQ ID NO. 10) hybridizes to a nucleotide sequence in exon 8 (nucleotide 7 to nucleotide 36). These primers and probes hybridize to nucleotide sequences common to human SMN1 and SMN2 mRNA. Since the SMA patient cells used in Example 3 contain only the SMN2 gene, RT-qPCR can quantify only SMN2 full-length and Δ7 mRNA.
The SMN forward and reverse primers are used at final concentrations of 0.4 μM. The SMN probe is used at a final concentration of 0.15 μM. GAPDH primers are used at final concentrations of 0.1 μM and the probe at 0.075 μM. […]
The increase of SMN2 FL and decrease in SMN2 Δ7 mRNA relative to those in cells treated with vehicle control are determined from real-time PCR data using a modified ΔΔCt method (as described in Livak and Schmittgen, Methods, 2001, 25:402-8). The amplification efficiency (E) is calculated from the slope of the amplification curve for SMN2 FL, SMN2 Δ7, and GAPDH individually. The abundances of SMN2 FL, SMN2 Δ7, and GAPDH are then calculated as (1+E)^−Ct, where Ct is the threshold value for each amplicon. […]

Row | SMILES | survival ([1]; IP QD PND 3 to PND 30, then orally BID from PND 31 until study end (FIG. 15a)) | Smn protein in the nucleus [2] | SMN2 FL mRNA [3] | SMN2 Δ7 mRNA [3] | survival ([1]; IP QD PND 3 to PND 23, then orally BID from PND 24 until study end (FIG. 15b))
1 | COc1ccc(-c2cc(=O)n3cc(N4CCNCC4)ccc3n2)cc1OC [Cpd 6, 2-(3,4-dimethoxyphenyl)-7-(piperazin-1-yl)-4H-pyrido[1,2-a]pyrimidin-4-one] | improved compared to vehicle treated mice | progressively more Smn protein in the nucleus | progressively more SMN2 FL mRNA | less SMN2 Δ7 mRNA | –
2 | Cc1cn2nc(-c3cc(=O)n4cc(N5CCN(C)CC5)ccc4n3)cc2c(C)n1 [Cpd 170, 2-(4,6-dimethylpyrazolo[1,5-a]pyrazin-2-yl)-7-(4-methylpiperazin-1-yl)-4H-pyrido[1,2-a]pyrimidin-4-one] | – | – | progressively more SMN2 FL mRNA | less SMN2 Δ7 mRNA | improved compared to vehicle treated mice
